The record followed here is patent US8236790B2, “Benzothiadiazepine compounds, a process for their preparation and pharmaceutical compositions containing them” (Les Laboratories Servier, priority 2009, dated 2012).

Series [1] has as its system NMDA-type glutamatergic receptors from rat cortex. Nature of the series: Current induced by NMDA in oocytes of Xenopus laevis injected with poly(A+) mRNA from rat cortex (two-electrode voltage clamp). The following applies: NMDA 3×10^−4M with 3×10^−5M glycine, −60 mV, magnesium-free OR2; read-out: IC50 (concentration of product which inhibits the current induced by NMDA by 50%). The class given is cell-based. As for the experimental part:
Effect of Compounds on the Current Induced by NMDA in Oocytes of Xenopus laevis Injected with Poly(A^+) mRNA from Rat Cortex
Electrophysiological recordings are carried out on oocytes of Xenopus laevis injected with poly(A^+) mRNA from rat cortex and expressing, inter alia, NMDA-type glutamatergic receptors from rat cortex, in a plexiglass recording chamber continuously perfused with OR2 solution not containing magnesium (which blocks the opening of the NMDA receptor channel) and at ambient temperature. The inward current induced by an application of NMDA is recorded at a resting potential of −60 mV, using a standard two-electrode voltage clamp technique. The NMDA (3×10^−4M) is applied with the perfusion solution in the presence of 3×10^−5M glycine for 30 seconds every 5 minutes, at a constant perfusion rate of 3 ml/min. The amplitude of the current induced by NMDA is measured at the peak of the current. The tested compounds are applied at increasing doses to the same oocyte in the perfusion solution 45 seconds before, 30 seconds during and 30 seconds after the application of 3×10^−4M NMDA in the presence of 3×10^−5M glycine every 5 minutes. The amplitude of the current induced by NMDA in the presence of compound is normalised and expressed as a percentage of that induced in the same oocyte in the absence of product, which corresponds to 100% response. […]
(In general: In two-electrode clamp one electrode senses voltage and the other passes current.)

Another series deals with AMPA receptor. Kind of series: Membrane depolarisation brought about by AMPA in primary cultures of rat neurons (fluorescence). The class given is cell-based. The following applies: read-out: EC2X (the concentration of compound which doubles the membrane potential brought about by AMPA); cultured rat embryonic neurons, AMPA 3 to 100 μM. As for the experimental part: Study of the Effect of Compounds on the Membrane Depolarisation Brought about by AMPA in Primary Cultures of Rat Neurons
The test comprises the in vitro measurement, by means of fluorescence, of the membrane depolarisation brought about in cultured rat embryonic neurons by the joint action of AMPA and the compound under test, compared to the action of AMPA alone. The brain cells are placed in culture and kept in a cell culture incubator for 18 days. After incubation, the culture medium is withdrawn and replaced with fluorescent probe loading medium for measurement of the membrane potential (20 μl; membrane potential kit from Molecular Devices) and left at ambient temperature for 1 hour. The base fluorescence of the wells is read (FDSS apparatus from Hamamatsu) and the cells are then injected with AMPA (20 μl; concentration range: from 3 to 100 μM) and the action of the AMPA is measured kinetically. The test compound is then introduced into the wells (20 μl; in a concentration range crossed with that of AMPA) and the action of the compound is measured kinetically. At the end of each of the two periods of kinetic measurement, the result for each well is the average reading over the final 15 seconds of the period. The curves are plotted of the effect of AMPA at the various concentrations of compound. […]

For the next series, the system named is CD1 mouse. Kind of series: Object recognition in the CD1 mouse. To be noted: doses of 1 and 3 mg/kg PO, 60 minutes before each of the 3 phases. The class given is in vivo. The source says:
Object Recognition in the CD1 Mouse
The object recognition test (Behay. Brain Res., 1988, 31, 47-59) is based on the spontaneous exploratory activity of the animal and has the characteristics of episodic memory in humans. This memory test is sensitive to ageing (Eur. J. Pharmacol., 1997, 325, 173-180) and to cholinergic dysfunctions (Pharm. Biochem. Behay., 1996, 53(2), 277-283) and is based on the differences in the exploration of 2 objects of fairly similar shape—one familiar, the other new. The test procedure, which has been adapted for the CD1 mouse, comprises 3 phases which take place in the same test enclosure. During the first phase, which lasts 40 minutes, the mice are habituated to the environment. During the second phase, which takes place the next day, an object is placed in the enclosure and the mouse is free to explore it. Once the duration of that exploration has reached 20 seconds, the mouse is taken out of the enclosure. In the course of the third phase (5 minutes), 24 hours later, the same object is presented (acquiring the status of a “familiar” object), as well as a new object. The duration of exploration, expressed in seconds, is timed for each of the two objects.

The structures appear in SMILES notation.

What is called melting point is the temperature, or range, at which the solid turns liquid.

With `O=S1(=O)NCCNc2ccc(Oc3ccccc3)cc21` [Example 1, 8-phenoxy-2,3,4,5-tetrahydro-1,2,5-benzothiadiazepine 1,1-dioxide], in series [1], the IC50 stood at 9 µM. Besides, the EC2X with AMPA receptor was 25 µM. The “exploration of the new object compared to the familiar object” value with CD1 mouse was “significantly greater exploration of the new object”.
As to `O=S1(=O)NCCNc2ccc(Oc3ccc(OCc4ccccc4)cc3)cc21` [Example 8, 8-[4-(benzyloxy)phenoxy]-2,3,4,5-tetrahydro-1,2,5-benzothiadiazepine 1,1-dioxide], the melting point worked out at 134 °C.
